Where “and” joins values, the source holds several entries; their conditions need not be identical. Equal entries are not always repeated. Entries after “also recorded” stand apart in the source; their conditions may differ. Where two headings read alike, the source gives them in different places.
Assays:
human chondrocytes = settings: cited from earlier work
[1] = Pharmacokinetic study, brain and plasma levels in mice; assay type: in vivo, mouse; settings: for Cmax: mouse, brain
Method: Since any potential therapeutic for AD needs to cross the blood-brain barrier (BBB), we further evaluated the brain permeability of Gp130 compound 2 in mice. Mice were dosed orally at 10 or 30 mg/kg, or injected subcutaneously (SQ) at 10 mg/kg, and euthanized after 1, 2, 4, 6, and 8 hours post-dose. […] The brain to plasma ratio for compound 2 was ˜4:1 for oral 30 mg/kg; and […] for 10 mg/kg SQ injection. Based on the oral brain levels of compound 2 we will conduct proof-of-concept testing in a mouse model of NMDA-induced toxicity in future studies.
The brain penetrance and plasma levels of compound 2 were assessed in a pharmacokinetic (PK) study comprising oral dosing (30 mg/kg and 10 mg/kg) and subcutaneous (sub-Q, 10 mkd) injection. For each route and dose, 5 adult wildtype mice received either 5 μL of a 50 mg/ml stock in 100% DMSO mixed 50:50 with flavoring to give 10 μL total for 10 mg/kg oral; or 10 μL of a 75 mg/ml stock in 100% DMSO mixed 50:50 with flavoring to give 20 μL final for 30 mg/kg oral; or were injected with 50 μL of a 5 mg/ml stock in 100% DMSO for sub-Q 10 mg/kg, Mice were euthanized by ketamine/xylazine over-anesthesia at 1, 2, 4, 6, and 8 h post-dosing, and blood collected by cardiac puncture. The mice were then perfused with saline and brain tissue dissected and snap frozen on dry ice. Blood was centrifuged at 3000 rpm for 10 min and the plasma supernatant was collected. Both plasma and the right hemi-brain were sent to Integrated Analytical Solutions (IAS, Berkeley, Calif.) with a reference sample of compound for compound level analysis in tissue and plasma. The compound levels were determined using a LC-MS/MS approach.

[2] = tested on: NMDA-treated primary hippocampal neurons; test: NMDA-triggered LDH release in primary hippocampal neuron culture; settings: for effect on NMDA-triggered LDH release (in words): 10 μM, 16 h pretreatment, NMDA 100 μM, 2.5 h, compared with NMDA alone; for effect of SC144 on the protection by compounds 2 or 8 against NMDA-evoked excitotoxicity (LDH): SC144 pretreatment/co-treatment with compound 2 or 8
Description: In this study, the cytotoxicity of NMDA was quantified by measuring the activity of lactate dehydrogenase (LDH) released from the cultured neurons into the medium and confirmed by living cell density analysis using calcein staining. […] MK-801, a noncompetitive antagonist of NMDA receptor, was used as a control [Wong et al., 1986, Proc. Natl. Acad. Sci. U.S.A., 83(18):7104].
(§1) In the present study, primary cultures of hippocampal neurons from E15-16 mouse embryos (C57BL/6) were used. The culture was made according to a previously described protocol with minor modifications [Bilousova et al. 2006, J. Neurochem. 97(1):44]. Hippocampi were isolated in ice-cold D-Hanks buffer containing (in mM: NaCl 136.7, KCl 5.4, NaHCO3 4.2, KH2PO4 0.4, NaH2PO4 0.6, glucose 5.6, and pH 7.4). In order to achieve a single cell suspension, hippocampal tissues were treated with papain (0.5 μg/mL) and Dnase (0.6 μg/mL) for 20 min at 37° C., followed by mechanical dissociation in complete media (Neurobasal medium supplemented with B27 (Invitrogen), 25 μM glutamate, and 1% penicillin-streptomycin). The cells were plated on poly-DL-ornithine (0.5 mg/mL), and laminin (5 μg/mL) pre-coated 96-well plates (Costar) at density 1×10^5 cells/mL and maintained in a humidified 5% CO2 incubator at 37° C. The proliferations of non-neuronal cells were limited by 48 h treatment with cytosine arabinoside (10 μM) started on first day in vitro (DIV1). All experiments were performed at 9 DIV cells.
Hippocampal neurons isolated from embryos were cultured for 8 days before treatment with chemical modulators (compounds). […] Briefly, the cells were washed three times with prewarmed Locke's buffer containing (in mM: NaCl 154, KCl 5.6, NaHCO3 3.6, CaCl2 2.3, MgCl2 1.2, glucose 5.6, HEPES 5, and pH 7.4) to remove traces of growth medium. […] The incubation was terminated by removal of compound-containing buffer, followed by washing with prewarmed drug-free Locke's buffer containing 1 mM Mg^2+.
Assessment of cell damage was done by measuring the LDH activity in the culture medium. The experiment was performed per the manufacturer's protocol (Promega). Release LDH levels were expressed as a percentage compared with that of the DMSO control group (100%).

[3] = tested on: pTyr-STAT3 in SH-SY5Y cells; test: pSTAT3 AlphaLISA in SH-SY5Y cells; assay type: cell-based, human; settings: 30 minutes, 1 μM
Method: Accordingly, the human neuroblastoma cell line SH-SY5Y was used, known to express the IL-6 receptor, […] to determine JAK-STAT activation as reflected by increases in pSTAT3. In the studies set forth in FIG. 2, cells were treated for 30 minutes with potential agonists PA1, PA2, and PA3; and then lysates were analyzed using the Sure-Fire Perkin-Elmer AlphaLISA for pTyr-STAT3.

[4] = tested on: NMDA-treated hippocampal neurons; test: Calcein staining, density of living neurons under NMDA-induced excitotoxicity; assay type: cell-based, mouse; settings: 10 μM pretreatment, NMDA 100 μM, 2.5 h
Description: Calcein staining was employed to evaluate the density of living neurons. A highly lipophilic non-fluorescent and cell permeable compound, calcein-acetoxymethyl ester (calcein-AM) was used for staining. Calcein-AM can be converted by intracellular esterases into calcein, an anionic fluorescent form, only labeling viable cells, and thus provides both morphological and functional information about undamaged cells.
as §1
Hippocampal neurons isolated from embryos were cultured for 8 days before treatment with chemical modulators (compounds). […]
A highly lipophilic non-fluorescent and cell permeable compound, calcein-acetoxymethyl ester (calcein-AM) was used to determine cell viability. […] Fluorescent images of live cells were collected using Lionheart FX automated digital microscope equipped with 4× objective and GFP filter cube (469/525); data was processed and analyzed using Gen5 software v. […]

With Brc1ccc(Nc2nc(-c3ccccc3)cs2)cc1 [Compound 1, N-(4-bromophenyl)-4-phenylthiazol-2-amine] as the compound, how does the “apoptosis of human chondrocytes” value (human chondrocytes) read?
The value was “reduce apoptosis of human chondrocytes”.

What about the pSTAT3 (human chondrocytes) of the same compound?
Its pSTAT3 is “increase pSTAT3”.

With Fc1ccc(Nc2nc(-c3ccccc3)cs2)cc1 [Compound 2, N-(4-fluorophenyl)-4-phenylthiazol-2-amine] as the compound, how does the “oral brain permeability (in words)” value [1] read?
The value was “good oral brain permeability”.

And the “oral bioavailability (in words)” value ([1]; dose of 30 mg/kg)?
The value was “orally bioavailable”.

What about the Cmax ([1]; po, 10 mg/kg, oral 10 mg/kg, at 1 h, read-out: Cmax for brain) of the same compound?
The Cmax was roughly 18 ng/g.

And the Cmax ([1]; po, 30 mg/kg, oral 30 mg/kg, at 1 h post dose, read-out: Cmax for brain)?
Its Cmax is ~570 nM and 156 ng/g.

What about the Cmax ([1]; po, 30 mg/kg, oral 30 mg/kg, read-out: Cmax) of the same compound?
Its Cmax is 570 nM.

What about the Cmax ([1]; subcutaneous, 10 mg/kg, SQ 10 mg/kg, at 2 h, read-out: Cmax for brain) of the same compound?
The Cmax was 161 ng/g.

And the “effect on NMDA-triggered LDH release (in words)” value (“effect … (in words)” below) [2]?
Its value is “greatest decrease”.

What about the “effect … (in words)” value ([2]; listed as compound 2) of the same compound?
The value was “rescued the LDH increase”.

And the “pSTAT3 levels over DMSO control” value [3]?
Its value is “increased pSTAT3”.

And the “density of living neurons (calcein staining)” value (from here on “density … (calcein staining)”) [4]?
Its value is “significance”.

What about the “density … (calcein staining)” value ([4]; listed as compound 2) of the same compound?
The value was “no difference in density of living neurons”.

Which “effect … (in words)” value [2] does the source give for Brc1ccc(Nc2nc(-c3cccnc3)cs2)cc1 [Compound 4, N-(4-bromophenyl)-4-(pyridin-3-yl)thiazol-2-amine] here?
The value was “greatest decrease”.

With Fc1ccc(Nc2nc(-c3ccccc3)cs2)c(F)c1 [Compound 5, N-(2,4-difluorophenyl)-4-phenylthiazol-2-amine] as the compound, how does the “effect … (in words)” value [2] read?
Its value is “greatest decrease”.

With Fc1ccc(Nc2nc(-c3ccc(F)cc3)cs2)cc1 [Compound 8, N,4-bis(4-fluorophenyl)thiazol-2-amine] as the compound, how does the “effect … (in words)” value [2] read?
The value was “rescued LDH; also recorded: greatest decrease”.

Which “effect … (in words)” value [2] does the source give for C[C@]12N[C@H](Cc3ccccc31)c1ccccc12 [MK801, reference compound] here?
The value was “rescued the LDH increase”.

And the “density … (calcein staining)” value [4]?
Its value is “significance”.

What does the source list for O=C(NNc1nc2cc(F)ccc2n2cccc12)c1cnccn1 [SC144]?
effect of SC144 on the protection by compounds 2 or 8 against NMDA-evoked excitotoxicity (LDH) [2]: prevented compound 2 rescue; also recorded: prevented this rescue; effect of SC144 on the protection by compounds 2 or 8 against NMDA-evoked excitotoxicity (LDH) ([2]; listed as SC-144): abated the protection

Which Gp130 agonism (human chondrocytes; Shkhyan et al. submitted manuscript) does the source give for Brc1ccc(Nc2nc(-c3ccccc3)cs2)cc1 [compound 1 (PA1)] here?
The Gp130 agonism was “Gp130 agonist”.

Which “effect … (in words)” value [2] does the source give for “HN: 24-amino acid bioactive peptide encoded in the mitochondrial genome by the gene MT-RNR2” here?
The value was “non-significance; also recorded: only one of them was active”.

And the “effect on neurons which were not treated with NMDA” value ([2]; no NMDA)?
Its value is “Neither HN itself nor the compounds had effect”.

For “HNG: potent HN analog, HN with a substitution of serine 14 to glycine (MAPRGFSCLLLLTGEIDLPVKRRA; UniProt Q8IVG9 1-24, looked up, variant S14G)”, which “effect … (in words)” value [2] is on record?
The value was “significance”.

— US10947207B2, “GP130 modulators” (THE REGENTS OF THE UNIVERSITY OF CALIFORNIA, priority 2016, dated 2021)
